Assays:
Assay type in all cases: cell-based
[1] = tested on: Aspergillus niger (NBRC6341); assay: Study of antimicrobial activity (MIC, agar plate medium)
Method: (§1) In a sterilized petri dish having a diameter of 90 mm, an aqueous solution which was obtained by diluting each of agents with distilled water such that a concentration of the agent become each predetermined concentrations when the solution is prepared to a total volume of 20 mL, and then sterilized water was added into the petri dish such that a total volume of sterilized water and the agent aqueous solution become 2 mL. Further, 18 mL of nutrient agar medium, which was sterilized with high pressure steam and preserved at 50° C.±2° C., was added into the petri dish, and it was solidified to obtain an agar plate medium.
(§2) The individual test microorganism, which was preliminarily cultured in bouillon medium in advance until 1×10^8 microorganisms/mL, was diluted with sterilized physiological saline for 100 times (to 1×10^6 microorganisms/mL). Next, prepared solution of the test microorganism was smeared with a platinum loop on the surface of the agar plate medium prepared in (2), and the medium was cultured at 35° C.±2° C., for 24 hours.
(§3) After the cultivation, confirming the presence or not of growth of the microorganism on the surface of the medium was conducted, a minimum concentration of the agent, where growth of the microorganisms cannot be recognized, was determined as the minimum inhibitory concentration (MIC, μg/mL) of the agent.

[2] = tested on: Bacillus subtilis (NBRC13719); assay: as above
Method: as §1, §2, §3

[3] = tested on: Chaetomium globosum (NBRC6347); assay: as above
Method: as §1, §2, §3

[4] = tested on: Cladosporium cladosporioides (NBRC6348); assay: as above
Method: as §1, §2, §3

[5] = tested on: Escherichia coli (NBRC3972); assay: as above
Method: as §1, §2, §3

[6] = tested on: Penicillium citrinum (NBRC6352); assay: as above
Method: as §1, §2, §3

[7] = tested on: Pseudonas aeruginosa (NBRC12689); assay: as above
Method: as §1, §2, §3

[8] = tested on: Staphylococcus aureus (NBRC12732); assay: as above
Method: as §1, §2, §3

[9] = tested on: Trichoderma viride (NBRC31831); assay: as above
Method: as §1, §2, §3

[10] = tested on: Bacillus subtilis (NBRC13719); assay: Study of germicidal activity of agents in the presence of proteins; parameters: key: a case where growth of the microorganism on the surface of the medium was recognized is shown by +; a case where growth of the microorganism on the surface of the medium was not recognized is shown by −; conditions: agent 50 μg/mL
Method: (§4) Didecyldimethylammonium adipate (DDAA), N-bis(3-aminopropyl)dodecylamine (TAA) and benzalkonium chloride were respectively prepared such that a concentration thereof is 1 w/w %.
(§5) GOT solution: GOT Substrate-Enzyme solution and GOT•L2α-KG solution which were components of L type Wako GOT•J2 kit (produced by Wako Pure Chemical Industries, Ltd.) were prepared with distilled water so as to become a 0.1 w/w % aqueous solution.
(§6) GPT solution: GOT Substrate-Enzyme solution and GOT•L2α-KG solution which were components of L type Wako GPT•J2 kit (produced by Wako Pure Chemical Industries, Ltd.) were prepared with distilled water so as to become a 0.1 w/w % aqueous solution.
(§7) Serum: Control Serum II Wako (produced by Wako Pure Chemical Industries, Ltd.) was prepared with distilled water so as to become a 0.1 w/w % aqueous solution.
(§8) i) The individual test microorganism, which was preliminarily cultured in bouillon medium in advance until 1×10^8 microorganisms/mL, were diluted with sterilized physiological saline for 100 times (to 1×10^6 microorganisms/mL) to obtain a solution of test microorganisms. ii) Into a 20 mL test tube made of glass which was preliminarily sterilized by dry-heat sterilization, the agent aqueous solution, the reagent solution and the solution of test microorganisms as prepared in the above described i) were added such that a final concentration of the agent become 50 μg/mL, a final concentration of the reagent become 100 μg/mL, and the number of test microorganisms become 1×10^5 microorganisms/mL, respectively, when a total volume thereof is prepared to be 10 mL. And then, the tube was sufficiently stirred. iii) After a lapse of predetermined times (5 min, 10 min, and 15 min), the solution as obtained in the above described ii) was smeared with a platinum loop on the surface of the nutrient agar plate medium preliminarily having been prepared, and the medium was cultured at 35° C.±2° C. for 24 hours. iv) After the cultivation, confirming the presence or not of the growth of the microorganisms on the surface of the medium was conducted. (3) Result
(§9) In Table 3, a case where growth of the microorganism on the surface of the medium was recognized is shown by +, and a case where growth of the microorganism on the surface of the medium was not recognized is shown by −, respectively.

[11] = tested on: Escherichia coli (NBRC3972); assay: as above; parameters: key: a case where growth of the microorganism on the surface of the medium was recognized is shown by +; a case where growth of the microorganism on the surface of the medium was not recognized is shown by −; conditions: agent 50 μg/mL
Method: as §4, §5, §6, §7, §8, §9

[12] = tested on: Pseudonas aeruginosa (NBRC12689); assay: as above; parameters: key to growth of the microorganism P.a: a case where growth of the microorganism on the surface of the medium was recognized is shown by +; a case where growth of the microorganism on the surface of the medium was not recognized is shown by −; conditions: agent 50 μg/mL
Method: as §4, §5, §6, §7, §8, §9

[13] = tested on: Staphylococcus aureus (NBRC12732); assay: as above; parameters: key to growth of the microorganism S.a: a case where growth of the microorganism on the surface of the medium was recognized is shown by +; a case where growth of the microorganism on the surface of the medium was not recognized is shown by −; conditions: agent 50 μg/mL
Method: as §4, §5, §6, §7, §8, §9

Didecyldimethylammonium adipate [DDAA]
100 µg/mL: Minimum Inhibitory Concentration Cl.cl [4] | Minimum Inhibitory Concentration E.c [5]
200 µg/mL: Minimum Inhibitory Concentration C.g [3] | Minimum Inhibitory Concentration T.v [9]
<1.563 µg/mL: Minimum Inhibitory Concentration B.s [2] | Minimum Inhibitory Concentration S.a [8]
−: growth of the microorganism P.a ([12]; GOT, 5 min) | growth of the microorganism P.a ([12]; GOT, 10 min) | growth of the microorganism P.a ([12]; GOT, 15 min) | growth of the microorganism P.a ([12]; GPT, 5 min) | growth of the microorganism P.a ([12]; GPT, 10 min) | growth of the microorganism P.a ([12]; GPT, 15 min) | growth of the microorganism P.a ([12]; Serum, 5 min) | growth of the microorganism P.a ([12]; Serum, 10 min) | growth of the microorganism P.a ([12]; Serum, 15 min) | growth of the microorganism S.a ([13]; GOT, 5 min) | growth of the microorganism S.a ([13]; GOT, 10 min) | growth of the microorganism S.a ([13]; GOT, 15 min) | growth of the microorganism S.a ([13]; GPT, 5 min) | growth of the microorganism S.a ([13]; GPT, 10 min) | growth of the microorganism S.a ([13]; GPT, 15 min) | growth of the microorganism S.a ([13]; Serum, 5 min) | growth of the microorganism S.a ([13]; Serum, 10 min) | growth of the microorganism S.a ([13]; Serum, 15 min)
400 µg/mL: Minimum Inhibitory Concentration A.n [1] | Minimum Inhibitory Concentration P.c [6] | Minimum Inhibitory Concentration P.a [7]
+: growth of the microorganism B.s ([10]; GOT, 5 min) | growth of the microorganism B.s ([10]; GOT, 10 min) | growth of the microorganism B.s ([10]; GOT, 15 min) | growth of the microorganism B.s ([10]; GPT, 5 min) | growth of the microorganism B.s ([10]; GPT, 10 min) | growth of the microorganism B.s ([10]; GPT, 15 min) | growth of the microorganism B.s ([10]; Serum, 5 min) | growth of the microorganism B.s ([10]; Serum, 10 min) | growth of the microorganism B.s ([10]; Serum, 15 min) | growth of the microorganism E.c ([11]; GOT, 5 min) | growth of the microorganism E.c ([11]; GOT, 10 min) | growth of the microorganism E.c ([11]; GOT, 15 min) | growth of the microorganism E.c ([11]; GPT, 5 min) | growth of the microorganism E.c ([11]; GPT, 10 min) | growth of the microorganism E.c ([11]; GPT, 15 min) | growth of the microorganism E.c ([11]; Serum, 5 min) | growth of the microorganism E.c ([11]; Serum, 10 min) | growth of the microorganism E.c ([11]; Serum, 15 min)

benzalkonium chloride [BC, reference compound]
1,600 μg/mL: Minimum Inhibitory Concentration A.n [1]
+: growth of the microorganism B.s ([10]; GOT, 5 min) | growth of the microorganism B.s ([10]; GOT, 10 min) | growth of the microorganism B.s ([10]; GOT, 15 min) | growth of the microorganism B.s ([10]; GPT, 5 min) | growth of the microorganism B.s ([10]; GPT, 10 min) | growth of the microorganism B.s ([10]; GPT, 15 min) | growth of the microorganism B.s ([10]; Serum, 5 min) | growth of the microorganism B.s ([10]; Serum, 10 min) | growth of the microorganism B.s ([10]; Serum, 15 min) | growth of the microorganism E.c ([11]; GOT, 5 min) | growth of the microorganism E.c ([11]; GOT, 10 min) | growth of the microorganism E.c ([11]; GOT, 15 min) | growth of the microorganism E.c ([11]; GPT, 5 min) | growth of the microorganism E.c ([11]; GPT, 10 min) | growth of the microorganism E.c ([11]; GPT, 15 min) | growth of the microorganism E.c ([11]; Serum, 5 min) | growth of the microorganism E.c ([11]; Serum, 10 min) | growth of the microorganism E.c ([11]; Serum, 15 min) | growth of the microorganism P.a ([12]; GOT, 5 min) | growth of the microorganism P.a ([12]; GOT, 10 min) | growth of the microorganism P.a ([12]; GOT, 15 min) | growth of the microorganism P.a ([12]; GPT, 5 min) | growth of the microorganism P.a ([12]; GPT, 10 min) | growth of the microorganism P.a ([12]; GPT, 15 min) | growth of the microorganism P.a ([12]; Serum, 5 min) | growth of the microorganism P.a ([12]; Serum, 10 min) | growth of the microorganism P.a ([12]; Serum, 15 min) | growth of the microorganism S.a ([13]; Serum, 5 min) | growth of the microorganism S.a ([13]; Serum, 10 min) | growth of the microorganism S.a ([13]; Serum, 15 min)
200 µg/mL: Minimum Inhibitory Concentration Cl.cl [4]
800 µg/mL: Minimum Inhibitory Concentration P.c [6] | Minimum Inhibitory Concentration P.a [7]
−: growth of the microorganism S.a ([13]; GOT, 5 min) | growth of the microorganism S.a ([13]; GOT, 10 min) | growth of the microorganism S.a ([13]; GOT, 15 min) | growth of the microorganism S.a ([13]; GPT, 5 min) | growth of the microorganism S.a ([13]; GPT, 10 min) | growth of the microorganism S.a ([13]; GPT, 15 min)
400 µg/mL: Minimum Inhibitory Concentration C.g [3] | Minimum Inhibitory Concentration T.v [9]
100 µg/mL: Minimum Inhibitory Concentration E.c [5]
<1.563 µg/mL: Minimum Inhibitory Concentration B.s [2]
6.25 µg/mL: Minimum Inhibitory Concentration S.a [8]
